In paper PMC6770857, “Unraveling Binding Mechanism of Alzheimer’s Drug Rivastigmine Tartrate with Human Transferrin: Molecular Docking and Multi-Spectroscopic Approach towards Neurodegenerative Diseases” (Biomolecules, 2019):
Counter-ions that a name gives are not always drawn.

Target: T1, human transferrin (hTf) (Homo sapiens, UniProt P02787)
T1 construct: gene TF
Test: intrinsic fluorescence quenching, modified Stern-Volmer
Type: binding
Conditions: pH 7.4, 50 mM sodium phosphate, 301 K, 4 uM hTf, excitation 280 nm, n = 0.99; double-log
Excerpt: intrinsic fluorescence quenching, modified Stern-Volmer on human transferrin (hTf)

T1 sequence (P02787 20-698): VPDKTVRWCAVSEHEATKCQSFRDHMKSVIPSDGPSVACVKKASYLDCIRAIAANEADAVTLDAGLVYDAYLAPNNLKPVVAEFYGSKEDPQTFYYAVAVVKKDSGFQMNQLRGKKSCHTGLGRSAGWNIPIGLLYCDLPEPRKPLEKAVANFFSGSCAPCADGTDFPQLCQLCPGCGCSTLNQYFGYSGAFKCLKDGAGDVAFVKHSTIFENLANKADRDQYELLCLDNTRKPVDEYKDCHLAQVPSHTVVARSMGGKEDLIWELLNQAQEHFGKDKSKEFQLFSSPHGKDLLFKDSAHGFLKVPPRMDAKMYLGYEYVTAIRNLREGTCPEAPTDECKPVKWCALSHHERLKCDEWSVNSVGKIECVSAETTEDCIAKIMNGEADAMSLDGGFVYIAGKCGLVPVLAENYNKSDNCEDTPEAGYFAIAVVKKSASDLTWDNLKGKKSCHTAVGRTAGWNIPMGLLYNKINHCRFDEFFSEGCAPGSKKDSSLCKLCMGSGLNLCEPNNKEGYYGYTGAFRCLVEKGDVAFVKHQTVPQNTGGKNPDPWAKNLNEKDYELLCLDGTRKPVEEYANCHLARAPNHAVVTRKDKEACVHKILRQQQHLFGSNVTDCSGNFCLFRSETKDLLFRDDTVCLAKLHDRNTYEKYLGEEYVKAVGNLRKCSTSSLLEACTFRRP

With CCN(C)C(=O)Oc1cccc([C@H](C)N(C)C)c1 [Rivastigmine tartrate] the “K (10^4 M^-1)” value was 5.3 10^4 M^-1.
